From patent publication EP0319316A2, “Griseolic acid monoesters, their preparation and use” (SANKYO COMPANY LIMITED, priority 1987, dated 1989)

Legend:
[1] = tested on: IOP; assay: IOP lowering effect, area between IOP-time curves (Experiment 6); type: in vivo, male New Zealand white rabbits; conditions: Concentration 2.0 %; 25 µℓ three times every 2 minutes; ratio of areas between IOP lines
Experimental: In the following Experiments 1 to 6, the test animals used were male New Zealand white rabbits, each weighing about 2.5 kg, raised in a room where the room temperature, relative humidity and lighting time were controlled to be 23° C, 60% and from 07:00 to 19:00, respectively. The animals were chosen from those where no abnormalities could be detected in their eyes by observation with the naked eye. They were given water freely but feed was restricted.
The compound under test was dissolved in 100 mM of a sodium phosphate buffer solution (pH 7.2) containing a small amount of a 0.1 N aqueous solution of sodium hydroxide. In the case of timolol maleate, a 0.5% w/v eye lotion (Timoptol 0.5%, Santen Pharm. Co.) was used as such.
The cornea of the rabbit was anesthetized by the topical application of one or two drops of 0.4% oxybuprocaine hydrochloride. The IOP was measured two or three times for each eye and the mean value was calculated and is reported as the IOP value. After the IOP of the rabbit eye had been measured, 25 µℓ of the sample solution was applied to center of the cornea of one eye three times every 2 minutes. The other eye was treated with the vehicle alone in a similar way. The IOP of both eyes was then measured.
IOP values obtained from both eyes were plotted against times after application and the area enclosed by the two IOP lines (with and without the active compound) was calculated. The IOP lowering effect of each sample was expressed as a ratio of the area described above to that of 0.5^0/o timolol.

[2] = design: species or system Male albino rabbits; conditions: rabbit, in vivo
Experimental: Animals: Male albino rabbits, each weighing about 2.5 kg, were used in a group of 5 animals.
Drug preparation and administration: the compound of Example 19(b) was dissolved in a 0.1 M sodium phosphate buffer (pH 7.2) and administered topically to one eye of the rabbit twice a day at […] and 16:00 for one week, although the administration at 16:00 on the final day was not carried out. The other group was left intact as a control. Four hours after the final administration at 09:00, blood was collected from the marginal ear vein of the rabbit in a syringe, and was centrifuged to obtain the serum.
Biochemical analysis of the serum: the rabbit serum was biochemically analyzed for trigly.ceride (TG), total cholesterol (T-CHO), alkaline phosphatase (ALP), total protein (TP), phospholipid (PL), urea nitrogen (UN), glucose (GLU), transaminase (GOT and GPT), albumin (ALB), total calcium (CA), inorganic phosphorus (IP), creatinine (CRE), and ratio of albumin to globulin (A/G). The analysis was carried out by using an autoanalyzer (HITACHI, Japan).

[3] = tested on: eyes; assay: Eye irritation by the Draize method (Experiment 11); type: in vivo, male New Zealand white rabbit; conditions: 2% by weight solution, 0.05 ml three times a day for seven days, right eye
Experimental: The irritation to the eyes caused by solutions of the compound of Example 19(b) was determined by the Draize method [J.H. Draize et af., J. Pharmacol. Exp. Ther., 82,377 (1944)] and evaluated by the method of Kay and Calandra [J.H. Kay and J.C. Calandra, J. Soc. Cosmet. Chem., 13, 281 (1962)].
The test solution employed was a simple solution of 2% by weight of the test compound in 100 mM of a sodium phosphate buffer (pH 7.2) for injections and adjusted to a pH value of from 7 to 8, as required.
A male New Zealand white rabbit of body weight about 2.5 kg was placed in a pillory to fix its head. 0.05 ml of the test solution was instilled into its right eye three times a day (at 09:00, 13:00 and 17:00) for seven days. The symptoms experienced by the anterior portion of the right eye were observed every day at 18:00 over a period of seven days, and the irritation observed was scored.

[4] = tested on: Male F344 rats; assay: Four-day toxicity in the rat (Experiment 8); type: in vivo
Experimental: Animals: Male F344 rats were used, each group consisting of 5 animals.
Drug preparation and administration: the compound of Example 19(b) was dissolved in distilled water and administered subcutaneously to the rats in a volume of 0.4 ml per 100 g of body weight at 09:00 for 4 days. Twenty-four hours after the final dose the rats were anesthetized with diethyl ether and their blood and organs were collected, weighed and used for pathological examination.

[5] = tested on: water load-induced elevation of intraocular pressure; assay: Effect on water load-induced elevation of intraocular pressure, water load test (Experiment 2); type: in vivo, male New Zealand white rabbits; conditions: 2.0% sample solution
Experimental: In the following Experiments 1 to 6, the test animals used were male New Zealand white rabbits, each weighing about 2.5 kg, raised in a room where the room temperature, relative humidity and lighting time were controlled to be 23° C, 60% and from 07:00 to 19:00, respectively. The animals were chosen from those where no abnormalities could be detected in their eyes by observation with the naked eye. They were given water freely but feed was restricted. The compound under test was dissolved in 100 mM of a sodium phosphate buffer solution (pH 7.2) containing a small amount of a 0.1 N aqueous solution of sodium hydroxide. In the case of timolol maleate, a 0.5% w/v eye lotion (Timoptol 0.5%, Santen Pharm. Co.) was used as such. Each rabbit was anesthetized with urethane (1.0 g/kg, i.v.), and the IOP values of both eyes were measured. Immediately thereafter, 50 µℓ of the sample solution was applied to one eye (test eye). To the other eye (control eye), 50 µℓ of the vehicle alone was applied. Ninety minutes after this application, the values of IOP were measured and then the water load test was performed as follows. Sixty ml/kg of tap water was given compulsorily per os to the anesthetized rabbit, and then the values of IOP for both eyes were measured with the passage of time. In this Experiment, the test compound was the compound of Example 19(b), i.e. 9'-(4-acetoxybenzyl) griseolate.

## CC(=O)Oc1ccc(COC(=O)C23C=C(C(O)C(=O)O)OC2C(O)C(n2cnc4c(N)ncnc42)O3)cc1 (stereo not shown) [Example 19(b), 9'-(4-Acetoxybenzyl) griseolate]
[1]
  IOP Lowering Effect (Ratio to 0.5% timolol): 2.35
[2]
  A/G: 15.6 ± 2.5
  ALB: 5.0 ± 0.1 g/dL
  ALP: 379.0 ± 49.0 IU/ℓ
  CA: 14.0 ± 0.2 mg/dL
  CRE: 0.90 ± 0.05 mg/dL
  GLU: 137.0 ± 3.0 mg/dL
  GOT: 9.6 ± 1.5 IU/ℓ
  GPT: 19.6 ± 3.9 IU/ℓ
  PL: 91.8 ± 4.6 mg/dL
  T-CHO: 45.0 ± 3.2 mg/dL
  TG: 58.4 ± 5.4 mg/dL
  TP: 5.3 ± 0.2 g/dL
  UN: 17.9 ± 0.9 mg/dL
[3]
  irritation to the eyes: No significant stimulus was observed
[4]; dose 6.25 mg/kg subcutaneously for 4 days
  death rate: 0/5
[4]; dose 12.5 mg/kg subcutaneously for 4 days
  death rate: 0/5
[4]; dose 25 mg/kg subcutaneously for 4 days
  death rate: 0/5
[4]; dose 50 mg/kg subcutaneously for 4 days
  death rate: 5/5
[5]; 50 µℓ, 90 minutes after application, before water loading, control eye 17.1 ± 1.1
  IOP of test eye: 16.8 ± 1.0 mmHg
[5]; 0.5 hours after water loading (60 ml/kg per os), control eye 28.7 ± 1.8, p < 0.05
  IOP of test eye: 25.6 ± 2.2 mmHg
[5]; 1.0 hours after water loading, control eye 26.3 ± 2.4, p < 0.05
  IOP of test eye: 22.6 ± 2.3 mmHg
[5]; 1.5 hours after water loading, control eye 20.3 ± 1.6, p < 0.05
  IOP of test eye: 17.5 ± 1.2 mmHg
[5]; 2.0 hours after water loading, control eye 17.4 ± 1.5
  IOP of test eye: 17.1 ± 1.1 mmHg
[5]; 2.5 hours after water loading, control eye 17.4 ± 1.9, p < 0.05
  IOP of test eye: 15.6 ± 1.5 mmHg
